System: human neurotensin receptor proteins expressed in HEK cell membranes
Assay: SPA [3H] neurotensin receptor binding assay
Conditions: displacement of 4 nM [3H]neurotensin, 2 hours, room temperature
Source text: The Citrullimycines according to the invention show inhibition in the neurotensin receptor binding assay of human neurotensin receptor proteins expressed in HEK cell membranes.
SPA [^3H] Neurotensin Receptor Binding Assay
Compounds with an affinity for the neurotensin receptor will displace the binding of [3H] neurotensin, which results in a diminished radioactive signal. In the SPA method, receptors immobilized directly on PVT WGA (Wheat Germ Agglutinin) coated SPA beads (Amersham Pharmacia) bind the radiolabelled ligand. The ligand-receptor complex is held in close enough proximity to stimulate emission of light by the bead. Any unbound radioligand is too distant from the bead to transfer energy and therefore will not be detected.
The samples were pre-diluted 1:5 with assay buffer (50 mM Tris-HCl buffer with 1 mM EDTA, 0.2 mM Bacitracin, and 0.1% BSA, pH 7.4) in deep well plates. The final dilution in the assay was 1:20. 96-well isoplates from Wallac were used for the screening. […]
On each plate, four wells without samples were used to determine the total receptor-ligand binding and another four wells with 1 μM (L-α, γ-diaminobutyryl) neurotensin were used to determine the nonspecific binding respectively. Inhibition activities are expressed as: […]

CCC(C)CCC(O)CC(=O)OC(CCC(C)C)CC(=O)NC(CCCNC(N)=O)C(=O)OC(CCC(C)CC)CC(=O)OC(CCC(C)CC)CC(=O)O (stereo not shown) [Citrullimycine A]
IC50: 16 µM

Source: patent publication US6930130B2, “Citrullimycines, a process for their production and their use as pharmaceuticals” (Aventis Pharma Deutschland GmbH, priority 2000, dated 2005)
